This note sets out measurements from patent US6916782B1, “Gene coding for heliomicine and use thereof” (priority 1998, dated 2005).

Series [1] has as its system female mice. The series can be described thus: Study of acute toxicity, intravenous injection.
Protocol: Groups of 4 female mice were treated by intravenous injection of solutions of heliomicine (SEQ ID NO:2) in saline solution at doses of 1 and 10 mg/kg.
Series [2] deals with Aspergillus fumigatus. The series can be described thus: Inhibition of growth in liquid medium, filamentous fungi (MIC). The following applies: range [a]-[b], 48 h, 30° C. It is filed as cell-based. The text has this:
(§1) This methodology was used to test for the antifungal molecules during the various purification steps, for the determination of the activity spectrum of the peptide and for the determination of the minimum inhibitory concentration (MIC) at which the peptide was active. The MIC was expressed as the concentration range [a]-[b] where [a] was the minimum concentration where the start of growth is observed and [b] the concentration for which no growth was observed.
(§2) The antifungal activity was detected by a test for inhibition of growth in a liquid medium. The spores of the fungi to be tested were suspended in a culture medium of the “potato-glucose” type. Preferably, 12 g of Potato Dextrose Broth medium (Difco) were used per 1 l of demineralized water. Two antibiotics were added to the culture medium: tetracycline (final concentration of 10 μg/ml) and cefotaxime (100 μg/ml). 10 μl of each fraction to be analysed are deposited in microtitre plates in the presence of 90 μl of culture medium containing the spores (at a final concentration of […]). The incubation was carried out in a humid chamber at 30° C. for 48 hours. Fungal growth was observed under a light microscope after 24 h and quantified after 48 hours by measuring the absorbance at 600 nm with the aid of a spectrophotometric microtitre plate reader. […]

In series [3] the test system is Trichoderma viride. The description is as above. The format is cell-based. The following applies: range [a]-[b], 48 h, 30° C.
Source text: as §1, §2

The subject of series [4] is Candida albicans. The series can be described thus: Test for detection of activity against yeasts (MIC). The format is cell-based. The following applies: range [a]-[b].
Source text: as §1
(§3) The various yeast strains were incubated in a “Sabouraud” type culture medium and incubated at 30° C. for 24 h with gentle stirring. The test sample (10 μl) was deposited in microtitre plate wells to which there were added 90 μl of a dilute yeast culture whose density was adjusted to OD 600=0.001. Growth was evaluated by measuring the absorbance at 600 nm with the aid of a spectrophotometric microtitre plate reader.
(§4) - yeasts tested: Candida albicans, C. glabrata, C. tropicalis, C. krusei, C. inconspicua, Cryptococcus neoformans, Cryp. albidus, Saccharomyces cerevisiae (gift from Dr. H. Koenig, Hôpital civil, Strasbourg).

Series [5] deals with Candida inconspicua. The description is as above. It is filed as cell-based. The following applies: range [a]-[b].
Source text: as §1, §3, §4

Series [6] relates to Candida krusei. The description is as above. It is filed as cell-based. The following applies: range [a]-[b].
Source text: as §1, §3, §4

The test system of series [7] is Candida tropicalis. The description is as above. It is filed as cell-based. The following applies: range [a]-[b].
Source text: as §1, §3, §4

For series [8], the system named is Cryptococcus albidus. The series is described as above. It is filed as cell-based. The following applies: range [a]-[b].
Source text: as §1, §3, §4

Series [9] has as its system Cryptococcus neoformans. The description is as above. It is filed as cell-based. The following applies: range [a]-[b].
Source text: as §1, §3, §4

Series [10] deals with Neurospora crassa. The following applies: range [a]-[b], start of growth to no growth, 48 h, 30° C.
Protocol: (§5) The antifungal activity was detected by a test for inhibition of growth in a liquid medium. The spores of the fungi to be tested were suspended in a culture medium of the “potato-glucose” type. Preferably, 12 g of Potato Dextrose Broth medium (Difco) were used per 1 l of demineralized water. Two antibiotics were added to the culture medium: tetracycline (final concentration of 10 μg/ml) and cefotaxime (100 μg/ml). 10 μl of each fraction to be analysed are deposited in microtitre plates in the presence of 90 μl of culture medium containing the spores (at a final concentration of 104 spores/ml). The incubation was carried out in a humid chamber at 30° C. for 48 hours. Fungal growth was observed under a light microscope after 24 h and quantified after 48 hours by measuring the absorbance at 600 nm with the aid of a spectrophotometric microtitre plate reader.
(§6) The different mutated heliomicines were analyzed for their antifungal activity under the conditions described for the reference heliomicine against the following strains: Neurospora crassa, Fusarium culmorum and Nectria haematococca.
Series [11] deals with Fusarium culmorum. The following applies: range [a]-[b], 48 h, 30° C.
Protocol: as §5, §6
Series [12] concerns Nectria haematococca. The following applies: range [a]-[b], 48 h, 30° C.
Protocol: as §5, §6

Bridge positions count the residues as written; N and C are the ends. Ends that are not written are not given here.

With `CC[C@H](C)[C@H](NC(=O)CN)C(=O)NCC(=O)N[C@@H](C)C(=O)N[C@H](C(=O)N[C@@H](CC(C)C)C(=O)N[C@@H](CCCCN)C(=O)N[C@H](C(=O)N[C@@H](CC(C)C)C(=O)N[C@H](C(=O)N[C@H](C(=O)NCC(=O)N[C@@H](CC(C)C)C(=O)N1CCC[C@H]1C(=O)N[C@@H](C)C(=O)N[C@@H](CC(C)C)C(=O)N[C@H](C(=O)N[C@@H](CO)C(=O)N[C@@H](Cc1c[nH]c2ccccc12)C(=O)N[C@H](C(=O)N[C@@H](CCCCN)C(=O)N[C@@H](CCCNC(=N)N)C(=O)N[C@@H](CCCCN)C(=O)N[C@@H](CCCNC(=N)N)C(=O)N[C@@H](CCC(N)=O)C(=O)N[C@@H](CCC(N)=O)C(N)=O)[C@@H](C)CC)[C@@H](C)CC)[C@@H](C)O)[C@@H](C)O)C(C)C)C(C)C` [mellitin], the Toxic effects result in series [1] (intravenous injection, at 5 days at 1 mg) is given as “significant effects”. The same molecule yielded a Mortality in series [1] (intravenous injection, at 5 days at 10 mg) of 100%.

“DKLIGSCVWGAVNYTSDCNGECKRRGYKGGHCGSFANVNCWCET (disulfide 7-32, 18-40, 22-42) [heliomicine]”: the MIC of heliomicine in series [2] fell in the range of 6 to 12.5 µM; in [3] it was 1.5 to 3 µM; in [4], 2.5 to 5 µM; in series [5], 5 to 10 µM; in [6], 10 to 20 µM; in series [7], 2.5 to 5 µM. Also, the MIC of heliomicine in series [8] is 5 to 10 µM; in [9] it was 2.5 to 5 µM; in series [10], 0.1 to 0.2 µM; in series [11], 0.2 to 0.4 µM; in series [12], 0.4 to 0.8 µM. Moreover, the Acute toxicity result in series [1] (intravenous injection in saline solution, doses of 1 and 10 mg/kg) is given as “No toxicity was demonstrated”.
